According to ChEMBL document CHEMBL3727345, “New compounds” (2012):

Target: fructose-2,6-bisphosphatase 3/4 (Homo sapiens) (UniProt Q16875+Q16877)
Assay: Inhibition of PFKFB3/PFKFB4 in human Panc1 cells assessed as fructose -2,6-bisphosphate production at 12.5 uM preincubated for 1 hr followed by addition of D-glucose measured after 2 hrs by spectrophotometry
Assay type: cell-based
Conditions: PANC-1

Sequence of fructose-2,6-bisphosphatase 3/4 (Homo sapiens) (Q16875 whole entry, looked up): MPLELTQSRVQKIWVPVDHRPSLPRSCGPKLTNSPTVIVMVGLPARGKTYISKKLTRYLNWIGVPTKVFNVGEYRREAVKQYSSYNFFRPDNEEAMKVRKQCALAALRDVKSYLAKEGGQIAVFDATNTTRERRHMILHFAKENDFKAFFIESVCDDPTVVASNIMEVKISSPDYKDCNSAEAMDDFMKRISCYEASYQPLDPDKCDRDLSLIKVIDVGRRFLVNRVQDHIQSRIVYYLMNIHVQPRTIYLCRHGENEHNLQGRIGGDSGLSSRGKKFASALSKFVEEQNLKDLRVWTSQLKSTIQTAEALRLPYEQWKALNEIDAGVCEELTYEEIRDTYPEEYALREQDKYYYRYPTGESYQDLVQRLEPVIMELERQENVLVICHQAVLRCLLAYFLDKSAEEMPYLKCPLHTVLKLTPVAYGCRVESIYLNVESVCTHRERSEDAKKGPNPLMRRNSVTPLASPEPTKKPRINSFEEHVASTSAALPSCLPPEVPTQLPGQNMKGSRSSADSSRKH
Sequence of fructose-2,6-bisphosphatase 3/4 (Homo sapiens) (Q16877 whole entry, looked up): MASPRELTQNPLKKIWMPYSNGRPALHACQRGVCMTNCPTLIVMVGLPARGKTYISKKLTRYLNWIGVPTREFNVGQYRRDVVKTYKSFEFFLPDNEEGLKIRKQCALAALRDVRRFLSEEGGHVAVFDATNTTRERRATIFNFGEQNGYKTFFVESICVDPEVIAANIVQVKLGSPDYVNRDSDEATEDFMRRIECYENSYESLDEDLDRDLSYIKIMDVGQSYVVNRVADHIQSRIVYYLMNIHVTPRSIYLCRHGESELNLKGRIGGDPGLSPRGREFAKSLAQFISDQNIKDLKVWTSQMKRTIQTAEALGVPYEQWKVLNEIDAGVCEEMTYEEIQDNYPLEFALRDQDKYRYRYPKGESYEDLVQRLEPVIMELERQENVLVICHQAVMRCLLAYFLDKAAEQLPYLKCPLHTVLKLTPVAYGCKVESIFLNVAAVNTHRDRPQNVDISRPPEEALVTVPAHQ

inhibition, > 50%:
CCOC(=O)c1cccc(NS(=O)(=O)c2sc3ccc(Cl)cc3c2C)c1, Cc1c(S(=O)(=O)Nc2cccc(C(=O)Oc3ccccc3)c2)sc2ccc(Cl)cc12, CCOC(=O)c1sc(NS(=O)(=O)c2cc(-c3cc(F)ccc3F)c(Cl)s2)nc1C, Cc1c(S(=O)(=O)Nc2cccc(C(=O)OCC3CCOC3)c2)sc2ccc(Cl)cc12 (stereo not given), COCCOC(=O)c1cccc(NS(=O)(=O)c2sc3ccc(Cl)cc3c2C)c1, Cc1c(S(=O)(=O)Nc2cccc(C(=O)OCc3ccccc3)c2)sc2ccc(Cl)cc12, Cc1c(S(=O)(=O)Nc2cccc(C(=O)OCCn3cccc3)c2)sc2ccc(Cl)cc12, CCCCCOC(=O)c1cccc(NS(=O)(=O)c2sc3ccc(Cl)cc3c2C)c1, CCOC(=O)c1sc(NS(=O)(=O)c2sc3ccc(Cl)cc3c2C)nc1C, COC(=O)c1cccc(NS(=O)(=O)c2oc3ccc(C(C)C)cc3c2C)c1
